Here are results for 31 compounds from patent publication US10092551B2, “Spiro-thiazolones” (Hoffmann-La Roche Inc., priority 2014, dated 2018).

Sequence of human V1a receptor (P37288 whole entry): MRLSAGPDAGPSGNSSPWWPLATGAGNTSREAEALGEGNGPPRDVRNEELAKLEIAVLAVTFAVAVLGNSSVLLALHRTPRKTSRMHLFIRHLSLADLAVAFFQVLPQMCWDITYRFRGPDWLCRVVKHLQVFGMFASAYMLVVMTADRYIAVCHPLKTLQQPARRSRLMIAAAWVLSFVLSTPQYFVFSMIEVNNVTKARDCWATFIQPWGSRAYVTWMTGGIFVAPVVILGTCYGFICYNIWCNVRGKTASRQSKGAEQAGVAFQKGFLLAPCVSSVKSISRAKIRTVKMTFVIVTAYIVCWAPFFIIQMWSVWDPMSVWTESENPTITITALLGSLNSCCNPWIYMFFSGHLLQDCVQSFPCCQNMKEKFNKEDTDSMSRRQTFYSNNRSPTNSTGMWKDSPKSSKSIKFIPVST

This assay has as its target human V1a receptor (Homo sapiens (Human), UniProt P37288). Briefly: human V1a receptor binding studies (3H-Vasopressin, SPA beads). The conditions noted are these: membranes of HEK293 cells transiently transfected with human V1a receptor, Ki by Cheng-Prussoff. The method, boiled down:
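Membranes from HEK293 cells transiently expressing cloned human V1a receptor, bound on yttrium silicate SPA beads with 4 nM 3H-vasopressin (added stock) and serially diluted compound, 1 h at room temperature. Non-specific binding defined with cold vasopressin; IC50 by non-linear regression, Ki via Cheng-Prusoff.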
For the compound `O=C1N=C(N2CCC3(CC2)OCc2ccccc23)SC1=C(c1ccc(F)cc1)c1ccc(F)cc1` [Example 101, 5-[bis(4-fluorophenyl)methylidene]-2-(1′H,3H-spiro[2-benzofuran-1,4′-piperidin]-1′-yl)-1,3-thiazol-4(5H)-one], the “pKi hV1a” value turned out to be 8.0. To `O=C1N=C(N2CCC3(CC2)OCc2ccccc23)SC1=C1c2ccccc2Sc2ccccc21` [Example 102, 2-(1′H,3H-spiro[2-benzofuran-1,4′-piperidin]-1′-yl)-5-(9H-thioxanthen-9-ylidene)-1,3-thiazol-4(5H)-one] belongs 8.6; to `O=C1N=C(N2CCC3(CC2)OCc2ccccc23)SC1=C1c2ccccc2Oc2ccccc21` [Example 103, 2-(1′H,3H-spiro[2-benzofuran-1,4′-piperidin]-1′-yl)-5-(9H-xanthen-9-ylidene)-1,3-thiazol-4(5H)-one], 8.6; to `O=C1N=C(N2CCC3(CC2)OCc2ccccc23)SC1=C1c2ccccc2-c2ccccc21` [Example 104, 5-(9H-fluoren-9-ylidene)-2-(1′H,3H-spiro[2-benzofuran-1,4′-piperidin]-1′-yl)-1,3-thiazol-4(5H)-one], 8.2. As to `C/C(=C1\SC(N2CCC3(CC2)OCc2ccccc23)=NC1=O)c1c(C)noc1C` [Example 106, (5E)-5-[1-(3,5-dimethyl-1,2-oxazol-4-yl)ethylidene]-2-(1′H,3H-spiro[2-benzofuran-1,4′-piperidin]-1′-yl)-1,3-thiazol-4(5H)-one], the “pKi hV1a” value is 7.3. To `C/C(=C1/SC(N2CCC3(CC2)OCc2ccccc23)=NC1=O)c1ncc[nH]1` [Example 107, (5Z)-5-[1-(1H-imidazol-2-yl)ethylidene]-2-(1′H,3H-spiro[2-benzofuran-1,4′-piperidin]-1′-yl)-1,3-thiazol-4(5H)-one] belongs 6.8. For the compound `C/C(=C1/SC(N2CCC3(CC2)OCc2ccccc23)=NC1=O)c1cc2ncccc2o1` [Example 108, (5E/Z)-5-[1-(furo[3,2-b]pyridin-2-yl)ethylidene]-2-(1′H,3H-spiro[2-benzofuran-1,4′-piperidin]-1′-yl)-1,3-thiazol-4(5H)-one], the “pKi hV1a” value is recorded as 7.0. `C/C(=C1/SC(N2CCC3(CC2)OCc2ccccc23)=NC1=O)c1nc[nH]c1C` [Example 109, (5E/Z)-5-[1-(5-methyl-1H-1-imidazol-4-yl)ethylidene]-2-(1′H,3H-spiro[2-benzofuran-1,4′-piperidin]-1′-yl)-1,3-thiazol-4(5H)-one]: the “pKi hV1a” value was determined as 6.6. As for `O=C1N=C(N2CCC3(CC2)OCc2ccccc23)SC1=C(c1ccccn1)c1ccccn1` [Example 110, 5-[di(pyridin-2-yl)methylidene]-2-(1′H,3H-spiro[2-benzofuran-1,4′-piperidin]-1′-yl)-1,3-thiazol-4(5H)-one], the “pKi hV1a” value worked out at 7.6. Turning to `O=C1N=C(N2CCC3(CC2)OCc2ccccc23)SC1=C(C(F)(F)F)C(F)(F)F` [Example 111, 5-(1,1,1,3,3,3-hexafluoropropan-2-ylidene)-2-(1′H,3H-spiro[2-benzofuran-1,4′-piperidin]-1′-yl)-1,3-thiazol-4(5H)-one], the “pKi hV1a” value was found to be 7.5. To `C/C(=C1/SC(N2CCC3(CC2)OCc2ccccc23)=NC1=O)c1sc(C)nc1C` [Example 112, (5E/Z)-5-[1-(2,4-dimethyl-1,3-thiazol-5-yl)ethylidene]-2-(1′H,3H-spiro[2-benzofuran-1,4′-piperidin]-1′-yl)-1,3-thiazol-4(5H)-one] belongs 8.6; to `O=C1N=C(N2CCC3(CC2)OCc2ccccc23)SC1=C(CCl)CCl` [Example 113, 5-(1,3-dichloropropan-2-ylidene)-2-(1′H,3H-spiro[2-benzofuran-1,4′-piperidin]-1′-yl)-1,3-thiazol-4(5H)-one], 7.0; to `CCCC(CCC)=C1SC(N2CCC3(CC2)OCc2ccccc23)=NC1=O` [Example 114, 5-(heptan-4-ylidene)-2-(1′H,3H-spiro[2-benzofuran-1,4′-piperidin]-1′-yl)-1,3-thiazol-4(5H)-one], 8.9. To `O=C1N=C(N2CCC3(CC2)OCc2ccccc23)SC1=C(C1CC1)C1CC1` [Example 115, 5-(dicyclopropylmethylidene)-2-(1′H,3H-spiro[2-benzofuran-1,4′-piperidin]-1′-yl)-1,3-thiazol-4(5H)-one] belongs 8.9; to `CC(C)CC(CC(C)C)=C1SC(N2CCC3(CC2)OCc2ccccc23)=NC1=O` [Example 116, 5-(2,6-dimethylheptan-4-ylidene)-2-(1′H,3H-spiro[2-benzofuran-1,4′-piperidin]-1′-yl)-1,3-thiazol-4(5H)-one], 8.3. For the compound `C/C(=C1/SC(N2CCC3(CC2)OCc2ccccc23)=NC1=O)c1cnc[nH]1` [Example 117, (5E/Z)-5-[1-(1H-imidazol-5-yl)ethylidene]-2-(1′H,3H-spiro[2-benzofuran-1,4′-piperidin]-1′-yl)-1,3-thiazol-4(5H)-one], the “pKi hV1a” value is reported as 7.3. `O=C1N=C(N2CCC3(CC2)OCc2ccccc23)SC1=C(C1CCCC1)C1CCCC1` [Example 118, 5-(dicyclopentylmethylidene)-2-(1′H,3H-spiro[2-benzofuran-1,4′-piperidin]-1′-yl)-1,3-thiazol-4(5H)-one]: the “pKi hV1a” value was determined as 7.6. `O=C1N=C(N2CCC3(CC2)OCc2ccccc23)SC1=C(c1cccnc1)c1cccnc1` [Example 119, 5-[di(pyridin-3-yl)methylidene]-2-(1′H,3H-spiro[2-benzofuran-1,4′-piperidin]-1′-yl)-1,3-thiazol-4(5H)-one]: the “pKi hV1a” value came out at 7.6. As for `CC(C)C(=C1SC(N2CCC3(CC2)OCc2ccccc23)=NC1=O)C(C)C` [Example 120, 5-(2,4-dimethylpentan-3-ylidene)-2-(1′H,3H-spiro[2-benzofuran-1,4′-piperidin]-1′-yl)-1,3-thiazol-4(5H)-one], the “pKi hV1a” value was 8.8. As for `C/C(CS(C)(=O)=O)=C1/SC(N2CCC3(CC2)OCc2ccccc23)=NC1=O` [Example 121, (5E/Z)-5-[1-(methylsulfonyl)propan-2-ylidene]-2-(1′H,3H-spiro[2-benzofuran-1,4′-piperidin]-1′-yl)-1,3-thiazol-4(5H)-one], the “pKi hV1a” value worked out at 7.0.

Regarding `O=C1N=C(N2CCC3(CC2)OCc2ccccc23)SC1=C(c1ccc[nH]1)c1ccc[nH]1` [Example 122, 5-(di-1H-pyrrol-2-ylmethylidene)-2-(1′H,3H-spiro[2-benzofuran-1,4′-piperidin]-1′-yl)-1,3-thiazol-4(5H)-one], the “pKi hV1a” value was determined as 9.0.

On to `CC(C)(C)[Si](C)(C)OC/C(=C1/SC(N2CCC3(CC2)OCc2ccccc23)=NC1=O)c1ccccc1` [Example 123, (5E)-5-(2-{[tert-butyl(dimethyl)silyl]oxy}-1-phenylethylidene)-2-(1′H,3H-spiro[2-benzofuran-1,4′-piperidin]-1′-yl)-1,3-thiazol-4(5H)-one], for which the “pKi hV1a” value was found to be 8.5. As for `O=C1N=C(N2CCC3(CC2)OCc2ccccc23)S/C1=C(/CO)c1ccccc1` [Example 124, (5E)-5-(2-hydroxy-1-phenylethylidene)-2-(1′H,3H-spiro[2-benzofuran-1,4′-piperidin]-1′-yl)-1,3-thiazol-4(5H)-one], the “pKi hV1a” value is 9.3. `O=C1N=C(N2CCC3(CC2)OCc2ccccc23)SC1=C(C1CCCCC1)C1CCCCC1` [Example 125, 5-(dicyclohexylmethylidene)-2-(1′H,3H-spiro[2-benzofuran-1,4′-piperidin]-1′-yl)-1,3-thiazol-4(5H)-one]: the “pKi hV1a” value is reported as 7.2. To `O=C1N=C(N2CCC3(CC2)OCc2ccccc23)S/C1=C(\CO)c1ccccc1` [Example 127, (5Z)-5-(2-hydroxy-1-phenylethylidene)-2-(1′H,3H-spiro[2-benzofuran-1,4′-piperidin]-1′-yl)-1,3-thiazol-4(5H)-one] belongs 9.0; to `O=C1N=C(N2CCC3(CC2)OCc2ccccc23)S/C1=C1\C=CCC1` [Example 128, (5Z)-5-(cyclopent-2-en-1-ylidene)-2-(1′H,3H-spiro[2-benzofuran-1,4′-piperidin]-1′-yl)-1,3-thiazol-4(5H)-one], 7.6. Consider `CC(C)(C)[Si](C)(C)OC/C(=C1/SC(N2CCC3(CC2)OCc2ccccc23)=NC1=O)c1ccc(Cl)nc1` [Example 129, (5E)-5-[2-{[tert-butyl(dimethyl)silyl]oxy}-1-(6-chloropyridin-3-yl)ethylidene]-2-(1′H,3H-spiro[2-benzofuran-1,4′-piperidin]-1′-yl)-1,3-thiazol-4(5H)-one], for which the “pKi hV1a” value was 8.2. To `O=C1N=C(N2CCC3(CC2)OCc2ccccc23)S/C1=C(/CO)c1ccc(Cl)nc1` [Example 130, (5E)-5-[1-(6-chloropyridin-3-yl)-2-hydroxyethylidene]-2-(1′H,3H-spiro[2-benzofuran-1,4′-piperidin]-1′-yl)-1,3-thiazol-4(5H)-one] belongs 8.9; to `CC(C)(C)[Si](C)(C)OC/C(=C1\SC(N2CCC3(CC2)OCc2ccccc23)=NC1=O)c1ccc(Cl)nc1` [Example 131, (5Z)-5-[2-{[tert-butyl(dimethyl)silyl]oxy}-1-(6-chloropyridin-3-yl)ethylidene]-2-(1′H,3H-spiro[2-benzofuran-1,4′-piperidin]-1′-yl)-1,3-thiazol-4(5H)-one], 7.8; to `CC(C)/C(=C1\SC(N2CCC3(CC2)OCc2ccccc23)=NC1=O)c1ccc(Cl)nc1` [Example 132, (5E)-5-[1-(6-chloropyridin-3-yl)-2-methylpropylidene]-2-(1′H,3H-spiro[2-benzofuran-1,4′-piperidin]-1′-yl)-1,3-thiazol-4(5H)-one], 7.8. To `CC/C(=C1/SC(N2CCC3(CC2)OCc2ccccc23)=NC1=O)c1ccc(Cl)nc1` [Example 133, (5Z)-5-[1-(6-chloropyridin-3-yl)propylidene]-2-(1′H,3H-spiro[2-benzofuran-1,4′-piperidin]-1′-yl)-1,3-thiazol-4(5H)-one] belongs 9.2.
